Data: PMC10051656, “Phenylpyrazolone-1,2,3-triazole Hybrids as Potent Antiviral Agents with Promising SARS-CoV-2 Main Protease Inhibition Potential” (Pharmaceuticals, 2023)
Where “and” joins values, the source holds several entries; their conditions need not be identical. Identical values can stand only once. Like-named read-outs stand apart in the source and are kept apart here.

Tests used:
SARS-CoV-2 Main protease = SARS-CoV-2 Main protease (Severe acute respiratory syndrome coronavirus 2, UniProt P0DTD1); assay: biochemical
SARS-CoV-2 = assay: microbe, parasite or virus in culture; format: cell-based; conditions: for API Value: ratio of 10 μM inhibition % of tested drug to the reference remdesivir
[1] = MTT cell viability / cytotoxicity in Vero E6 cells; design: cytotoxicity to Vero E6 cells: dose or concentration left out as unconfirmed; conditions: African green monkey
Vero E6 cells = assay: MTT cell viability / cytotoxicity in Vero E6 cells; design: cytotoxicity to Vero E6 cells: dose or concentration left out as unconfirmed; conditions: for IC50: read-out: Cytotoxicity (Vero E6) (IC50), Vero E6 cells, MTT test
SARS-CoV Main protease = conditions: cited from earlier work
[2] = tested on: Main protease of MERS-CoV; conditions: cited from earlier work
[3] = triplicate readings with SE, read-out: IC50 (μM) ± SE
[4] = Severe acute respiratory syndrome coronavirus 2, Vero C1008, 1 μM, infected Vero E6 cells, MOI 0.01, read-out: Anti-SARS-CoV-2 Effect Assay (%) 1 μM
[5] = Severe acute respiratory syndrome coronavirus 2, Vero C1008, 10 μM, infected Vero E6 cells, MOI 0.01, read-out: Anti-SARS-CoV-2 Effect Assay (%) 10 μM
[6] = Cytotoxicity (Vero E6) (IC50, μM), Vero E6 cells, MTT test

Row | SMILES | IC50 (SARS-CoV-2 Main protease; [3]) | inhibition at 1 µM (SARS-CoV-2; [4]) [%] | inhibition at 10 µM (SARS-CoV-2; [5]) [%] | API Value (SARS-CoV-2) | IC50 [1, 6] [µM] | further results
1 | CC1=NN(c2ccc(Cl)cc2)C(=O)/C1=C\c1ccc(OCc2cn(-c3ccc(C(=O)O)cc3)nn2)cc1 [6a] | 76 µM and 76.9 µM | 10.8 ± 0.06 | 19.3 | 0.21 | 17.1 ± 13 | Anti-SARS-CoV-2 Effect Assay (%) 10 μM (SARS-CoV-2; 10 μM, infected Vero E6 cells, MOI 0.01): 19.27 ± 0.51%
2 | CC1=NN(c2ccccc2)C(=O)/C1=C\c1ccc(OCc2cn(-c3ccc(C(=O)O)cc3)nn2)cc1 [6b] | > 200 µM | – | – | – | – | melting point: 205 to 206 °C
3 | CC(=O)c1ccc(-n2cc(COc3ccc(/C=C4\C(=O)N(c5ccc(Cl)cc5)N=C4C)cc3)nn2)cc1 [6c] | 81.1 ± 3.9 µM | 4.46 ± 0.034 | 24.5 ± 0.37 | 0.26 | 92.1 ± 7 | –
4 | CC1=NN(c2ccc(Cl)cc2)C(=O)/C1=C\c1ccc(OCc2cn(-c3ccc(F)cc3)nn2)cc1 [6d] | 42.4 ± 3.8 µM | 7.38 ± 0.007 | 55.47 ± 0.27 | 0.60 | 172 ± 13 | –
5 | CC1=NN(c2ccc(Cl)cc2)C(=O)/C1=C\c1ccc(OCc2cn(-c3ccc([N+](=O)[O-])cc3)nn2)cc1 [6e] | 30.1 ± 1.4 µM | 17.4 ± 0.19 | 49.5 ± 1.01 | 0.53 | 66.4 ± 5.1 | –
6 | CC1=NN(c2ccc(Cl)cc2)C(=O)/C1=C\c1ccc(OCc2cn(-c3ccc(Cl)cc3)nn2)cc1 [6f] | 144 ± 6.9 µM | 1.54 ± 0.089 | 30.2 ± 0.31 | 0.31 | 51.4 ± 3.9 | –
7 | CC1=NN(c2ccc(Cl)cc2)C(=O)/C1=C\c1ccc(OCc2cn(-c3ccc(Cl)c(Cl)c3)nn2)cc1 [6g] | 200 ± 9.5 µM | 12.23 ± 0.05 | 38.74 ± 0.3 | 0.41 | 235 ± 18 | –
8 | CC1=NN(c2ccc(Cl)cc2)C(=O)/C1=C\c1ccc(OCc2cn(-c3ccc(C)c(F)c3)nn2)cc1 [6h] | 5.08 ± 3.5 µM | 15.5 ± 0.003 | 64.2 | 0.66 | 33.7 ± 2.6 | –
9 | CC1=NN(c2ccc(Cl)cc2)C(=O)/C1=C\c1ccc(OCc2cn(CC(=O)Nc3ccc(C(=O)O)cc3)nn2)cc1 [6i] | 3.17 µM and 7.55 µM and 3.1 µM and 3.16 µM | 21.86 ± 0.09 | 64 | 0.67 | 22.1 | IC50 (Vero E6 cells): 21.1 ± 1.6 µM
10 | CC1=NN(c2ccc(Cl)cc2)C(=O)/C1=C\c1ccc(OCc2cn(CC(=O)Nc3ccc(F)cc3)nn2)cc1 [6j, (Z)-2-(4-((4-((1-(4-Chlorophenyl)-3-methyl-5-oxo-1H-pyrazol-4(5H)-ylidene)methyl)phenoxy)methyl)-1H-1,2,3-triazol-1-yl)-N-(4-fluorophenyl)acetamide] | 49.4 ± 2.4 µM | 16.16 ± 0.03 | 39.65 ± 0.25 | 0.46 | 156 ± 12 | –
11 | CC1=NN(c2ccccc2)C(=O)/C1=C\c1ccc(OCc2cn(CC(=O)Nc3ccc(F)cc3)nn2)cc1 [6k, (Z)-N-(4-Fluorophenyl)-2-(4-((4-((3-methyl-5-oxo-1-phenyl-1H-pyrazol-4(5H)-ylidene)methyl)phenoxy)methyl)-1H-1,2,3-triazol-1-yl)acetamide] | > 200 µM | – | – | – | – | IC50 (SARS-CoV-2 Main protease; unit inferred, read-out: IC50 (numbers printed in the chart of Figure 5)): 200 µM; melting point: 201 to 203 °C
12 | CC1=NN(c2ccc(Cl)cc2)C(=O)/C1=C\c1ccc(OCc2cn(CC(=O)Nc3ccc([N+](=O)[O-])cc3)nn2)cc1 [6l, (Z)-2-(4-((4-((1-(4-Chlorophenyl)-3-methyl-5-oxo-1H-pyrazol-4(5H)-ylidene)methyl)phenoxy)methyl)-1H-1,2,3-triazol-1-yl)-N-(4-nitrophenyl)acetamide] | 135 ± 6.5 µM | 8.84 ± 0.11 | 46.91 ± 0.28 | – | 32.6 ± 2.5 | –
13 | CC1=NN(c2ccc(Cl)cc2)C(=O)/C1=C\c1ccc(OCc2cn(CC(=O)Nc3ccc(C)c(F)c3)nn2)cc1 [6m, (Z)-2-(4-((4-((1-(4-Chlorophenyl)-3-methyl-5-oxo-1H-pyrazol-4(5H)-ylidene)methyl)phenoxy)methyl)-1H-1,2,3-triazol-1-yl)-N-(3-fluoro-4-methylphenyl)acetamide] | 25.7 ± 0.4 µM | 9.55 ± 0.02 | ~50 | 0.49 | 189 ± 14 | –
14 | CC1=NN(c2ccc(Cl)cc2)C(=O)/C1=C\c1ccc(OCc2cn(CC(=O)NCc3ccc(Cl)cc3)nn2)cc1 [6n, (Z)-N-(4-Chlorobenzyl)-2-(4-((4-((1-(4-chlorophenyl)-3-methyl-5-oxo-1H-pyrazol-4(5H)-ylidene)methyl)phenoxy)methyl)-1H-1,2,3-triazol-1-yl)acetamide] | 86.6 ± 4.1 µM | 3.73 ± 0.01 | 51.13 ± 0.14 | 0.55 | 23.1 ± 1.8 | –
15 | CC1=NN(c2ccc(Cl)cc2)C(=O)/C1=C\c1ccc(OCc2cn(CC(=O)NCc3ccc(C)cc3)nn2)cc1 [6o, (Z)-2-(4-((4-((1-(4-Chlorophenyl)-3-methyl-5-oxo-1H-pyrazol-4(5H)-ylidene)methyl)phenoxy)methyl)-1H-1,2,3-triazol-1-yl)-N-(4-methylbenzyl)acetamide] | 43.3 ± 2.1 µM | 12.23 ± 0.1 | 54.1 ± 0.61 | 0.56 | 262 ± 20 | –
16 | COc1ccc(CNC(=O)Cn2cc(COc3ccc(/C=C4\C(=O)N(c5ccc(Cl)cc5)N=C4C)cc3)nn2)cc1 [6p, (Z)-2-(4-((4-((1-(4-Chlorophenyl)-3-methyl-5-oxo-1H-pyrazol-4(5H)-ylidene)methyl)phenoxy)methyl)-1H-1,2,3-triazol-1-yl)-N-(4-methoxybenzyl)acetamide] | 23.7 ± 1.1 µM | 9.5 ± 0.11 | ~50 | 0.54 | 20.1 ± 1.5 | –
17 | CC1=NN(c2ccc(Cl)cc2)C(=O)/C1=C\c1ccc(OCc2cn(CC(=O)NCc3ccc(F)cc3)nn2)cc1 [6q, (Z)-2-(4-((4-((1-(4-Chlorophenyl)-3-methyl-5-oxo-1H-pyrazol-4(5H)-ylidene)methyl)phenoxy)methyl)-1H-1,2,3-triazol-1-yl)-N-(4-fluorobenzyl)acetamide] | 3.16 µM and 7.55 µM | 12.9 ± 0.03 | 79 | 0.84 | > 20 | IC50 (Vero E6 cells): 35.3 ± 2.7 µM
18 | CC(C)CC(NC(=O)OCc1ccccc1)C(=O)NC(CC1CCNC1=O)C(O)S(=O)(=O)O (centres unmarked) [GC-376, reference compound] | – | 78.96 ± 0.67 | 92.9 ± 1.15 | 0.99 | 41.2 ± 1.1 | –
19 | CCC(CC)COC(=O)[C@H](C)N[P@](=O)(OC[C@H]1O[C@@](C#N)(c2ccc3c(N)ncnn23)[C@H](O)[C@@H]1O)Oc1ccccc1 [REM, remdesivir, reference compound] | – | – | – | 1.0 | – | inhibition at 1 µM (SARS-CoV-2; Severe acute respiratory syndrome coronavirus 2, Vero C1008, read-out: Anti-SARS-CoV-2 Effect Assay (%) 1 μM): 89.6 ± 0.98%; inhibition at 10 µM (SARS-CoV-2; Severe acute respiratory syndrome coronavirus 2, Vero C1008, read-out: Anti-SARS-CoV-2 Effect Assay (%) 10 μM): 93.3 ± 1.17%; IC50 [1]: 61.8 ± 4.7 µM; cytotoxicity to Vero E6 cells (Vero E6 cells; positive control): no cytotoxicity
20 | N#Cc1ccc(N2N=C(c3ccccc3)/C(=C/c3ccc(C(=O)O)cc3)C2=O)cc1 [compound 7] | – | – | – | – | – | IC50 (SARS-CoV Main protease): 5.5 µM
21 | O=C(O)c1ccc(/C=C2\C(=O)N(c3ccc(F)cc3)N=C2c2ccccc2)cc1 [compound 8] | – | – | – | – | – | IC50 (SARS-CoV Main protease): 6.8 µM
22 | O=C(O)c1cccc(N2N=C(c3ccccc3)/C(=C/c3ccc(-c4ccccc4)o3)C2=O)c1 [compound 9] | – | – | – | – | – | IC50 (SARS-CoV Main protease): 6.4 µM; IC50 [2]: 5.8 µM
23 | CC(C)(C)c1ccc(N2N=C(c3ccccc3)/C(=C/c3ccc(-c4cc(Cl)ccc4C(=O)O)o3)C2=O)cc1 [compound 10] | – | – | – | – | – | IC50 (SARS-CoV Main protease): 5.8 µM; IC50 [2]: 7.4 µM
24 | Cc1cccc(C)c1OCC(=O)N[C@@H](Cc1ccccc1)[C@@H](O)C[C@H](Cc1ccccc1)NC(=O)[C@H](C(C)C)N1CCCNC1=O [lopinavir, reference compound] | 82.2 µM | – | – | – | – | –
